We go through one molecule from paper PMC10388363, “Novel 1,4-Dihydropyridines as Specific Binders and Activators of SIRT3 Impair Cell Viability and Clonogenicity and Downregulate Hypoxia-Induced Targets in Cancer Cells” (Journal of Medicinal Chemistry, 2023).

The test concerns the target T1, human SIRT3 (Homo sapiens, UniProt Q9NTG7).
T1 construct: pET151D/Topo (Sirt3-114-380 and Sirt5-34-302); His tag (N, cleaved yes); made in house; host or cells: Escherichia coli
T1 sequence (Q9NTG7 114-380): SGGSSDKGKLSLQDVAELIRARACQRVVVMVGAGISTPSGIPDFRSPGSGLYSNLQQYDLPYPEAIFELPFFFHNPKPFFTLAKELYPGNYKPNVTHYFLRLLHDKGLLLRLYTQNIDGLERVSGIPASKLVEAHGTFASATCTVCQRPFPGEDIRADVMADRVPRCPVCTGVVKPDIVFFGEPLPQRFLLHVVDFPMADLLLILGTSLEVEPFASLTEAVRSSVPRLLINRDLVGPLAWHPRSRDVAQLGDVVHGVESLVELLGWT
In words: Surface plasmon resonance binding assay, immobilized SIRT3. The following applies: SPR, Scatchard analysis, analytes 5-80 μM. As for the experimental part:
Next, surface plasmon resonance (SPR) experiments were conducted with selected SIRT3 activators 2e and 3a–d to ascertain their biophysical interaction with the human SIRT3 protein. Their parental compounds 2 and 3, together with honokiol, were used as positive controls. The experiments were carried out twice at different concentrations (5, 10, 20, 40, and 80 μM), by injecting the compounds at increasing doses (Figure 5). The resonance units (RU) increase with respect to baseline indicates the formation of the SIRT3/ligand complex, the plateau region represents the steady-state phase of the interaction (RUeq, RU at equilibrium) and the decrease in RU after 180 s represents dissociation of analytes from the immobilized SIRT3 protein after injection of the buffer.
SPR experiments were carried out using a SensiQ Pioneer system (SensiQ, Oklahoma City, OK, USA), essentially as in Genovese et al. 2020[84] and in Battista et al. 2021,[85] with some modifications, as follows.
The sensor chip (COOH5) was chemically activated by a 35 μL injection of a 1:1 mixture of […] (200 mM) and N-hydroxysuccinimide (50 mM) at a flow rate of 5 μL/min. Sirtuin3 (ligand) was immobilized on activated sensor chips via amine coupling. Immobilization was carried out in 20 mM sodium acetate at pH 4.0; unreacted groups were blocked by injecting 1 M ethanolamine hydrochloride (35 μL). Sirtuin3 immobilization level obtained was 1500–4000 RU.
The analytes, dissolved in 100% DMSO at 10 mM concentration, were diluted in buffer 20 mM Hepes, 150 mM NaCl, 0.005% surfactant P20 buffer (HBSP) to a concentration of 200 μM (2% final DMSO concentration), further diluted in HBSP + 2% DMSO (HBSP2%D) and injected on the sensor chip at a constant flow rate (nominal flow rate = 30 μL/min) at the following concentrations: 5, 10, 20, 40, and 80 μM.
The RU increase relative to baseline indicates complex formation (taking place at known analytes concentrations at each moment in the gradient); the plateau region represents the steady-state phase of the interaction (RUeq); and the decrease in RU after 180 s represents dissociation of analytes from the immobilized Sirtiun3 after injection of HBSP2%D. Regeneration procedures are based on two long (2000 and 500 s) injections of buffer, separated by a brief (5 s) injection of 10 mM NaOH.
Control experiments were performed in sensor chips treated as described above in the absence of an immobilized ligand. Kinetic evaluation of the sensorgrams was obtained using the SensiQ Qdat program and full fitting with 1, 2, and 3 sites; Scatchard analysis was used to determine apparent KD values.
(Surface plasmon resonance follows binding to a sensor surface in real time, without labels.)

Structures are written as SMILES.

For `CCOC(=O)C1=CN(C(=O)c2ccc(OC)c(OC)c2)C=C(C(=O)OCC)C1c1ccccc1` [Compound 3c, Diethyl 1-(3,4-dimethoxybenzoyl)-4-phenyl-1,4-dihydropyridine-3,5-dicarboxylate], the Kd (as a rule, the equilibrium constant for the complex coming apart) stood at 29 µM.
